Patent US20240270762A1, “PENICILLIN-BINDING PROTEIN INHIBITORS” (priority 2021, published 2024)
≈ marks a conversion by molar mass, not a printed value.

Legend:
E. coli AG100 = assay: microbe, parasite or virus in culture; type: cell-based; settings: Escherichia coli, AG100, read-out: MIC E. coli AG100
N. gonorrhoeae FA1090 = assay: Liquid broth MIC in Fastidious broth; settings: Neisseria gonorrhoeae, FA1090, read-out: Minimum Inhibitory Concentration (MIC), N. gonorrhoeae FA 1090
[1] = tested on: P. aeruginosa (ΔmexAB-oprM); assay: Broth microdilution MIC in CAMHB; type: cell-based; settings: Pseudomonas aeruginosa; read-out: MIC P. aeruginosa ΔmexAB-oprM
N. gonorrhoeae WHO G = assay: Liquid broth MIC in Fastidious broth; settings: Neisseria gonorrhoeae, read-out: Minimum Inhibitory Concentration (MIC), N. gonorrhoeae WHO G
Method: Additional antibacterial testing of the series was performed in 8 reference strains of N. gonorrhoeae (ATCC 49226, FA1090, MS 11, WHO G, WHO L, WHO M, WHO K, WHO X, WHO Z, WHO Q, CDC-0197). ATCC 49226, FA1090, MS11, WHO G, WHO L, and WHO M produce wild type or wild-type like PBP2. WHO K, WHO X, WHO Z, WHO Q, and CDC-0197 produce mosaic PBP2. Liquid broth-based assays were used for antibacterial testing of PBP inhibitors in Neisseria gonorrhoeae. Briefly, cryo-preserved bacterial cultures of clinical strains were streaked for isolation on Chocolate Agar (72 g/L (2×) GC Agar Base (BD #228950) and 2% (2×) Hemoglobin was autoclaved at 121° C. for 20 minutes to sterilize. Once cooled to ˜50° C. the 2×GC Agar Base and 2× Hemoglobin solutions are combined and 1% IsoVitaleX Enrichment (BD #211876) was added to the solution). Strains were incubated at 36° C. and 5% CO2 to allow growth of colonies, 24 hours before inoculum preparation. 2-fold serial dilutions of test compounds were conducted in a 96 well plate with a final volume of 75 μL per well at 2-fold the final desired concentration in Fastidious broth (Remel #R07664). For preparation of assay inoculum, a direct suspension was prepared by aseptically swabbing 10-15 colonies from agar plates into culture tubes containing 2 mL of fresh sterile saline. After the dilution plates were set up, direct suspensions were then diluted in a cuvette containing sterile saline and the optical density was measured at 600 nm. Inocula were diluted such that 75 μL of this culture in Fastidious broth results in a starting bacterial concentration of 5×10^5 CFU/mL when added to the dilution plates. The plates were incubated for ˜24 hours at 36° C. and 5% CO2.

K. pneumoniae 848844 = assay: microbe, parasite or virus in culture; type: cell-based; settings: Klebsiella pneumoniae, 848844, read-out: MIC K. pneumoniae 848844
N. gonorrhoeae WHO X = assay: Liquid broth MIC in Fastidious broth; settings: Neisseria gonorrhoeae, read-out: Minimum Inhibitory Concentration (MIC), N. gonorrhoeae WHO X
[2] = molecular target: T1, PBP3 from Pseudomonas aeruginosa (PAO1) (Pseudomonas aeruginosa, UniProt G3XD46); assay: Bocillin-FL fluorescence polarization competition binding, P. aeruginosa PBP3; settings: Binding affinity to P. aeruginosa PBP3; fluorescence polarization competition binding assay using Bocillin-FL; read-out: P. aeruginosa PBP3 Potency
T1 construct: made in house
In short: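 Purified PBP was preincubated with inhibitor (E. coli PBP3 1.5 μM, 30 min; P. aeruginosa PBP3 0.75 μM, A. baumannii PBP3 0.2 μM and PBP1a 1 μM, 15 min), then Bocillin-FL (0.1 μM; 0.05 μM for PBP1a) added and FP read up to 60 min. EC50 = 50% loss of bound probe.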

P. aeruginosa ATCC 27853 = assay: microbe, parasite or virus in culture; type: cell-based; settings: Pseudomonas aeruginosa, ATCC27853, read-out: MIC P. aeruginosa ATCC 27853

T1 sequence (G3XD46 whole entry): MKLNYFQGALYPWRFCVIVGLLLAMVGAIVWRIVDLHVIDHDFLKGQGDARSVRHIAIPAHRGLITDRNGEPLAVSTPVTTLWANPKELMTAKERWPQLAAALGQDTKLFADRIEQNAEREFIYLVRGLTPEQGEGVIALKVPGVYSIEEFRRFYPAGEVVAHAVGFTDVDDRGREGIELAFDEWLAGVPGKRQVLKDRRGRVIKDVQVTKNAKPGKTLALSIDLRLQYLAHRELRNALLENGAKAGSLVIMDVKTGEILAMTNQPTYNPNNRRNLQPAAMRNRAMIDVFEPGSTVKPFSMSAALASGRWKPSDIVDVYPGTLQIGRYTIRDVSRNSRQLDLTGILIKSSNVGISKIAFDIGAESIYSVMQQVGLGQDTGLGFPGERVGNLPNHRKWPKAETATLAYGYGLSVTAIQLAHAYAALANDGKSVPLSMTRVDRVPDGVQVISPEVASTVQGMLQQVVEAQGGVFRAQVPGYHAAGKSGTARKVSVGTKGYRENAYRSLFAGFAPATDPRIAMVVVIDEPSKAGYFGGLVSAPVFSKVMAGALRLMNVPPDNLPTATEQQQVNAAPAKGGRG

SMILES | MIC (E. coli AG100) [µg/mL] | MIC (N. gonorrhoeae FA1090) [µg/mL] | MIC [1] [µg/mL] | MIC (N. gonorrhoeae WHO G) [µg/mL] | MIC (K. pneumoniae 848844) [µg/mL] | MIC (N. gonorrhoeae WHO X) [µg/mL] | IC50 [2] [µM] | MIC (P. aeruginosa ATCC 27853) [µg/mL]
CS(=O)(=O)N1CCN(C(=O)NC(C(=O)N[C@H]2Cc3cccc(C(=O)O)c3OB2O)c2ccc(P(=O)(O)O)c(F)c2)C1=O (stereo partly drawn) [Example 12, (3R)-3-(2-(3-fluoro-4-phosphonophenyl)-2-(3-(methylsulfonyl)-2-oxoimidazolidine-1-carboxamido)acetamido)-2-hydroxy-3,4-dihydro-2H-benzo[e][1,2]oxaborinine-8-carboxylic acid] | 8 to 16 (≈ 12.7 to 25.5 µM) | < 1 | 32 to 64 (≈ 50.9 to 102 µM) | < 1 | > 128 | < 1 | < 10 | > 128
O=C(O)c1cccc2c1OB(O)[C@@H](NC(=O)C(NC(=O)[C@H]1CCCN1)c1ccc(P(=O)(O)O)cc1)C2 (stereo partly drawn) [Example 52, (3R)-2-hydroxy-3-(2-(4-phosphonophenyl)-2-((R)-pyrrolidine-2-carboxamido)acetamido)-3,4-dihydro-2H-benzo[e][1,2]oxaborinine-8-carboxylic acid] | > 128 | 16 to 32 (≈ 30.9 to 61.9 µM) | > 128 | 16 to 32 (≈ 30.9 to 61.9 µM) | > 128 | 16 to 32 (≈ 30.9 to 61.9 µM) | 50 to 250 | > 128
CCN1CCN(C(=O)NC(C(=O)N[C@H]2Cc3cccc(C(=O)O)c3OB2O)c2c(F)cc(P(=O)(O)O)cc2F)C(=O)C1=O (stereo partly drawn) [Example 25, (3R)-3-(2-(2,6-difluoro-4-phosphonophenyl)-2-(4-ethyl-2,3-dioxopiperazine-1-carboxamido)acetamido)-2-hydroxy-3,4-dihydro-2H-benzo[e][1,2]oxaborinine-8-carboxylic acid] | 32 to 64 (≈ 51.3 to 103 µM) | < 1 | 32 to 64 (≈ 51.3 to 103 µM) | < 1 | > 128 | 4 to 8 (≈ 6.41 to 12.8 µM) | < 10 | > 128
CS(=O)(=O)N1CCN(C(=O)N[C@@H](C(=O)N[C@H]2Cc3cccc(C(=O)O)c3OB2O)c2ccc(P(=O)(O)O)c(F)c2)C1=O (single isomer, unassigned) [Example 15] | 32 to 64 (≈ 50.9 to 102 µM) | < 1 | 32 to 64 (≈ 50.9 to 102 µM) | < 1 | > 128 | < 1 | < 10 | > 128
O=C(N[C@@H](C(=O)N[C@H]1Cc2cccc(C(=O)O)c2OB1O)c1ccc(P(=O)(O)O)cc1)c1ccc(C(F)(F)F)cn1 (single isomer, unassigned) [Example 193] | 32 to 64 (≈ 53.9 to 108 µM) | < 1 | 32 to 64 (≈ 53.9 to 108 µM) | < 1 | > 128 | 4 to 8 (≈ 6.74 to 13.5 µM) | < 10 | > 128
O=C(O)c1cccc2c1OB(O)[C@@H](NC(=O)C(NC(=O)N1CCCC1=O)c1ccc(P(=O)(O)O)cc1)C2 (stereo partly drawn) [Example 57, (3R)-2-hydroxy-3-(2-(2-oxopyrrolidine-1-carboxamido)-2-(4-phosphonophenyl)acetamido)-3,4-dihydro-2H-benzo[e][1,2]oxaborinine-8-carboxylic acid] | > 128 | < 1 | > 128 | < 1 | > 128 | 4 to 8 (≈ 7.53 to 15.1 µM) | < 10 | > 128
O=C(O)c1cccc2c1OB(O)[C@@H](NC(=O)[C@H](NC(=O)c1ccn[nH]c1=O)c1ccc(P(=O)(O)O)cc1)C2 (single isomer, unassigned) [Example 178] | > 128 | < 1 | 8 to 16 (≈ 14.8 to 29.5 µM) | < 1 | > 128 | 4 to 8 (≈ 7.38 to 14.8 µM) | < 10 | 32 to 64 (≈ 59 to 118 µM)
CN1CCCN(C(=O)NC(C(=O)N[C@H]2Cc3cccc(C(=O)O)c3OB2O)c2ccc(P(=O)(O)O)cc2)C1=O (stereo partly drawn) [Example 38, (3R)-2-hydroxy-3-(2-(3-methyl-2-oxohexahydropyrimidine-1-carboxamido)-2-(4-phosphonophenyl)acetamido)-3,4-dihydro-2H-benzo[e][1,2]oxaborinine-8-carboxylic acid] | > 128 | < 1 | 32 to 64 (≈ 57.1 to 114 µM) | < 1 | > 128 | 16 to 32 (≈ 28.6 to 57.1 µM) | < 10 | > 128
O=C1CC[C@H](C(=O)NC(C(=O)N[C@H]2Cc3cccc(C(=O)O)c3OB2O)c2ccc(P(=O)(O)O)cc2)N1 (stereo partly drawn) [Example 53, (3R)-2-hydroxy-3-(2-((R)-5-oxopyrrolidine-2-carboxamido)-2-(4-phosphonophenyl)acetamido)-3,4-dihydro-2H-benzo[e][1,2]oxaborinine-8-carboxylic acid] | > 128 | 1 to 2 (≈ 1.88 to 3.76 µM) | > 128 | 1 to 2 (≈ 1.88 to 3.76 µM) | > 128 | 16 to 32 (≈ 30.1 to 60.2 µM) | 10 to 50 | > 128
CC(C)S(=O)(=O)NC(C(=O)N[C@H]1Cc2cccc(C(=O)O)c2OB1O)c1ccc(P(=O)(O)O)cc1 (stereo partly drawn) [Example 60, (3R)-2-hydroxy-3-(2-((1-methylethyl)sulfonamido)-2-(4-phosphonophenyl)acetamido)-3,4-dihydro-2H-benzo[e][1,2]oxaborinine-8-carboxylic acid] | > 128 | 4 to 8 (≈ 7.6 to 15.2 µM) | > 128 | 16 to 32 (≈ 30.4 to 60.8 µM) | > 128 | 16 to 32 (≈ 30.4 to 60.8 µM) | 50 to 250 | > 128
CC(C)(C)C(=O)NC(C(=O)N[C@H]1Cc2cccc(C(=O)O)c2OB1O)c1ccc(P(=O)(O)O)cc1 (stereo partly drawn) [Example 29, (3R)-2-hydroxy-3-(2-(4-phosphonophenyl)-2-pivalamidoacetamido)-3,4-dihydro-2H-benzo[e][1,2]oxaborinine-8-carboxylic acid] | > 128 | 4 to 8 (≈ 7.93 to 15.9 µM) | 8 to 16 (≈ 15.9 to 31.7 µM) | 16 to 32 (≈ 31.7 to 63.5 µM) | > 128 | 16 to 32 (≈ 31.7 to 63.5 µM) | 10 to 50 | 32 to 64 (≈ 63.5 to 127 µM)
CS(=O)(=O)N1CCN(C(=O)N[C@@H](C(=O)N[C@H]2Cc3ccc(F)c(C(=O)O)c3OB2O)c2ccc(P(=O)(O)O)c(F)c2F)C1=O [Example 16, (R)-3-((R)-2-(2,3-difluoro-4-phosphonophenyl)-2-(3-(methylsulfonyl)-2-oxoimidazolidine-1-carboxamido)acetamido)-7-fluoro-2-hydroxy-3,4-dihydro-2H-benzo[e][1,2]oxaborinine-8-carboxylic acid] | > 128 | < 1 | > 128 | < 1 | > 128 | < 1 | < 10 | > 128
CCN1CCN(C(=O)N[C@@H](C(=O)N[C@H]2Cc3ccc(F)c(C(=O)O)c3OB2O)c2ccc(P(=O)(O)O)cc2)C(=O)C1=O (single isomer, unassigned) [Example 10] | > 128 | < 1 | 32 to 64 (≈ 52.8 to 106 µM) | < 1 | > 128 | < 1 | < 10 | 32 to 64 (≈ 52.8 to 106 µM)
CN1CCC[C@H]1C(=O)NC(C(=O)N[C@H]1Cc2cccc(C(=O)O)c2OB1O)c1ccc(P(=O)(O)O)cc1 (stereo partly drawn) [Example 66] | > 128 | 4 to 8 (≈ 7.53 to 15.1 µM) | 32 to 64 (≈ 60.2 to 120 µM) | 4 to 8 (≈ 7.53 to 15.1 µM) | > 128 | 16 to 32 (≈ 30.1 to 60.2 µM) | 10 to 50 | > 128
CCN1CCN(C(=O)NC(C(=O)N[C@H]2Cc3cccc(C(=O)O)c3OB2O)c2cccc(CP(=O)(O)O)c2)C(=O)C1=O (stereo partly drawn) [Example 22, (3R)-3-(2-(4-ethyl-2,3-dioxopiperazine-1-carboxamido)-2-(3-(phosphonomethyl)phenyl)acetamido)-2-hydroxy-3,4-dihydro-2H-benzo[e][1,2]oxaborinine-8-carboxylic acid] | 8 to 16 (≈ 13.3 to 26.6 µM) | < 1 | 8 to 16 (≈ 13.3 to 26.6 µM) | < 1 | > 128 | 4 to 8 (≈ 6.64 to 13.3 µM) | < 10 | > 128
CS(=O)(=O)N1CCN(C(=O)N[C@@H](C(=O)N[C@H]2Cc3cccc(C(=O)O)c3OB2O)c2ccc(P(=O)(O)O)c(F)c2F)C1=O (single isomer, unassigned) [Example 13] | 32 to 64 (≈ 49.5 to 99 µM) | < 1 | 32 to 64 (≈ 49.5 to 99 µM) | < 1 | > 128 | < 1 | < 10 | > 128
O=C(O)c1cccc2c1OB(O)[C@@H](NC(=O)[C@@H](NC(=O)c1cccn(C(F)F)c1=O)c1ccc(P(=O)(O)O)cc1)C2 (single isomer, unassigned) [Example 190] | > 128 | < 1 | 32 to 64 (≈ 54.1 to 108 µM) | 1 to 2 (≈ 1.69 to 3.38 µM) | > 128 | 16 to 32 (≈ 27.1 to 54.1 µM) | < 10 | > 128
O=C(O)c1cccc2c1OB(O)[C@@H](NC(=O)[C@@H](NC(=O)c1ccn[nH]c1=O)c1ccc(P(=O)(O)O)cc1)C2 (single isomer, unassigned) [Example 177] | > 128 | < 1 | > 128 | < 1 | > 128 | 16 to 32 (≈ 29.5 to 59 µM) | < 10 | > 128
